Measurements from patent US20210198277A1, “AMINE-SUBSTITUTED ARYL OR HETEROARYL COMPOUNDS” (Epizyme, Inc., priority 2016, published 2021).

Target: T1, EHMT2 (Homo sapiens, UniProt Q96KQ7)
T1 construct: host or cells: MDA-MB-231
T1 sequence (Q96KQ7 1-1210): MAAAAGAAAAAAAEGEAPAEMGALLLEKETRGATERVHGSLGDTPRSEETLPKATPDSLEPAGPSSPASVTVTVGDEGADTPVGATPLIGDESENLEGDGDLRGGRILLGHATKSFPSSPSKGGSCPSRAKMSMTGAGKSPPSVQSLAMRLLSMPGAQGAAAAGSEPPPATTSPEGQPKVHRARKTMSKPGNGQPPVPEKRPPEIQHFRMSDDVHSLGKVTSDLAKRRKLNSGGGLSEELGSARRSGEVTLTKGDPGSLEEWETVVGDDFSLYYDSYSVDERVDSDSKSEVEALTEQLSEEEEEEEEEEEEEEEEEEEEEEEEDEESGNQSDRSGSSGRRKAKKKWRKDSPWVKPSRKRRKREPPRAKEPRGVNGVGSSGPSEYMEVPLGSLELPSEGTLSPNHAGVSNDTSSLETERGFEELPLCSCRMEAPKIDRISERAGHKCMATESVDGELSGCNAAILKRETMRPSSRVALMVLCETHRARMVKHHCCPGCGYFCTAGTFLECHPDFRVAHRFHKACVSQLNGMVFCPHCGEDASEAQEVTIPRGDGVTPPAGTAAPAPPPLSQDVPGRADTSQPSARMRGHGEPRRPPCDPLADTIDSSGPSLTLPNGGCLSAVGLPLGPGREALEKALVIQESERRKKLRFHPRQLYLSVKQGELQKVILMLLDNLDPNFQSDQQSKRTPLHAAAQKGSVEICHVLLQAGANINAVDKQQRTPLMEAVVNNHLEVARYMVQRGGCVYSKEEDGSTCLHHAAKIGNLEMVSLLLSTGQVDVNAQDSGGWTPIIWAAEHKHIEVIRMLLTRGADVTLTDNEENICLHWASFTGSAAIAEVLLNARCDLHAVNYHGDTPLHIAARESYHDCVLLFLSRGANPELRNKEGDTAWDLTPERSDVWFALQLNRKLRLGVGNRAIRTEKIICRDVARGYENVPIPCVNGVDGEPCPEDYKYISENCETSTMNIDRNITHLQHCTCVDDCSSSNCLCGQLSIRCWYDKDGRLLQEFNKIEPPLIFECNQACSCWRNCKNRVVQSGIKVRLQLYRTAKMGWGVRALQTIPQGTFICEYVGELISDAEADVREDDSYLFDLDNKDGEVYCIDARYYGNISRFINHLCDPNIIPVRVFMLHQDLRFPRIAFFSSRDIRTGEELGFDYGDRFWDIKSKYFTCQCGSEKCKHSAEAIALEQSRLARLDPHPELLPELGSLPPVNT
Test: MDA-MB-231 H3K9me2 in-cell Western assay (EHMT2 ICW)
Assay type: cell-based
Conditions: Table VI; read-out: EHMT2 ICW IC50
Method in brief: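 For 48 h at 37 °C, breast cancer MDA-MB-231 cells were incubated with compound, then fixed and immunostained for H3K9me2, with DRAQ5 used for normalisation. Each well's signal ratio yielded percent inhibition, and IC50 values were derived by fitting a four-parameter curve.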

| SMILES | IC50 [nM] |
| --- | --- |
| CNc1cc(C)nc(Nc2ccc(OC)c(OC[C@H](O)CN3CC(F)C3)c2)n1 [Compound 986] | 1000 to 10000 |
| CNc1cc(C)nc(Nc2ccc(OC)c(CNCCN(C)C)c2)n1 [Compound 990] | 100 to 1000 |
| CCN1CCC(O)(COc2cc(Nc3nccc(NC)n3)ccc2OC)C1 (stereo not shown) [Compound 1006] | 100 to 1000 |
| CCN1CCC(O)(COc2cc(Nc3nccc(NC)n3)ccc2OC)C1 (stereo not shown) [Compound 1007] | > 10000 |
| CNCCC(C)Oc1cc(Nc2nccc(NC)n2)ccc1OC (stereo not shown) [Compound 1011] | 1000 to 10000 |
| CNc1ccnc(Nc2ccc(OC)c(OCCC(C)NC)c2)n1 (stereo not shown) [Compound 1016] | 1000 to 10000 |

Next, values leading:

| IC50 [nM] | SMILES |
| --- | --- |
| 1000 to 10000 | CNc1ccnc(Nc2ccc(OC)c(OCC(C)(O)CN3CCC3)c2)n1 (stereo not shown) [Compound 1005] |
| 100 to 1000 | CNc1ccnc(Nc2ccc(OC)c(OCC(C)CN3CCC3)c2)n1 (stereo not shown) [Compound 1008] |
| 1000 to 10000 | CNCC(C)COc1cc(Nc2nccc(NC)n2)ccc1OC (stereo not shown) [Compound 1009] |
| 1000 to 10000 | CNc1ccnc(Nc2ccc(OC)c(OCCC(C)N3CCC3)c2)n1 (stereo not shown) [Compound 1014] |
